Test results as given in patent publication US12006283B2, “HIF-1α inhibitor, preparation method therefor, and pharmaceutical composition for preventing or treating angiogenesis-associated eye disease, containing same as active ingredient” (SEOUL NATIONAL UNIVERSITY R&DB FOUNDATION, priority 2018, dated 2024).

Assays:
[1] = molecular target: T1, HIF-1α (hypoxia-inducible factor 1α) (Homo sapiens, UniProt Q16665); experiment: Evaluation of HIF-1α inhibitory activity (in vitro); type: cell-based; conditions: for IC50: HIF-1α inhibitory activity
T1 sequence (Q16665 whole entry, looked up): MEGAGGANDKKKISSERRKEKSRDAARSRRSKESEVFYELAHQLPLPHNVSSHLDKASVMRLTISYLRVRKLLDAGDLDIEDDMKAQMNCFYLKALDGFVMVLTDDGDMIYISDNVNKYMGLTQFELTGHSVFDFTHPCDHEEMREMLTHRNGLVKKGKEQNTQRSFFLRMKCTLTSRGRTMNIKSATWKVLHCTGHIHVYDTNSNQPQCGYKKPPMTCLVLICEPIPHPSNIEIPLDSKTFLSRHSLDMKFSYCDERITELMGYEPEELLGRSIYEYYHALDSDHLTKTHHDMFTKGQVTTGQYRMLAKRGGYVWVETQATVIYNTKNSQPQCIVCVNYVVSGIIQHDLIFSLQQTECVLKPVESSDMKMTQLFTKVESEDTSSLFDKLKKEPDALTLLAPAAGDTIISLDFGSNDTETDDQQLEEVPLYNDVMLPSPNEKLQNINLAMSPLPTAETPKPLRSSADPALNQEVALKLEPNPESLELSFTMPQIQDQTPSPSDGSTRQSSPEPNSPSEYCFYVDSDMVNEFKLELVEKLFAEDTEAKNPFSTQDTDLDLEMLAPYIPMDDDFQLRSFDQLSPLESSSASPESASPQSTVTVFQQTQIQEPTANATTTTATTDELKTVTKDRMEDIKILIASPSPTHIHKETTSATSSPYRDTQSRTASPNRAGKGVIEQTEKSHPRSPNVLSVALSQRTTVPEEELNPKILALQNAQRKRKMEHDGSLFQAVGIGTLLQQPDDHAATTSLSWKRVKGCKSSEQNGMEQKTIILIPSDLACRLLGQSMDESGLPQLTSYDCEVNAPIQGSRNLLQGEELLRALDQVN
Description: <Experimental Example 1> Evaluation of HIF-La Inhibitory Activity (In Vitro) The following experiment was performed in order to evaluate inhibitory activity against HIF-1α (hypoxia-inducible factor 1α) of the compound of Example according to an embodiment of the present invention.

angiogenesis = experiment: Evaluation of inhibitory activity against angiogenesis (in vitro); type: cell-based; conditions: FIG. 1, compared with Comparative Example 1
Description: <Experimental Example 2> Evaluation of Inhibitory Activity Against Angiogenesis (In Vitro)
The following experiment was performed in order to evaluate inhibitory activity against angiogenesis of the compound of Example according to an embodiment of the present invention.
(§1) FIG. 1 is a graph showing the results of analysis of inhibitory activity against angiogenesis of the compound of Example according to an embodiment of the present invention, wherein compound 2 is a compound of Comparative Example 1, and compound 34f is a compound of Example 10.

[2] = molecular target: T1, HIF-1α (hypoxia-inducible factor 1α); experiment: Evaluation of HIF-1α regulatory activity (in vitro); type: cell-based; conditions: FIG. 2, compared with Comparative Example 1
Description: <Experimental Example 3> Evaluation of HIF-1α Regulatory Activity (In Vitro)
The following experiment was performed in order to evaluate regulatory activity of HIF-1α (hypoxia-inducible factor 1α) of the compound of Example according to an embodiment of the present invention.
as §1, with “FIG. 2” for “FIG. 1”, “of the regulatory” for “of inhibitory”, “activity of HIF-1α (hypoxia-inducible factor 1α)” for “activity against angiogenesis”

[3] = system: retinal neovascularization by hypoxia; experiment: Evaluation of inhibitory activity against retinal neovascularization by hypoxia; type: in vivo; conditions: FIG. 3; compared with Comparative Example 1
Description: <Experimental Example 4> Evaluation of Inhibitory Activity Against Retinal Neovascularization by Hypoxia
The following experiment was performed in order to evaluate inhibitory activity against retinal neovascularization by hypoxia of the compound of Example according to an embodiment of the present invention.
FIG. 3 is a graph showing the results of analysis of the inhibitory activity against retinal neovascularization by hypoxia of the compound of Example according to an embodiment of the present invention, wherein compound 2 is a compound of Comparative Example 1, and compound 34f is a compound of Example 10.

| Molecule | IC50 [1] [µM] | also measured |
| --- | --- | --- |
| COc1ccc(C(C)C(=O)c2ccc(N3CCOCC3)cc2OC)cc1OC (stereo not shown) [Example 8, 2-(3,4-dimethoxyphenyl)-1-(2-methoxy-4-morpholinophenyl)propan-1-one] | 8.74 |  |
| COc1ccc(C(C)C(=O)c2ccc(N(C)C)cc2OC)cc1OC (stereo not shown) [Example 5, 2-(3,4-dimethoxyphenyl)-1-(4-(dimethylamino)-2-methoxyphenyl)propan-1-one] | > 15 |  |
| COc1ccc(C(=O)C(C)c2ccc(OC)c(OC)c2)c(OC)c1 (stereo not shown) [Example 2, 1-(2,4-dimethoxyphenyl)-2-(3,4-dimethoxyphenyl)propan-1-one] | > 15 |  |
| COc1ccc(C(C)C(=O)c2ccc(OC3CCCCC3)cc2OC)cc1OC (stereo not shown) [Example 4, 1-(4-(cyclohexyloxy)-2-methoxyphenyl)-2-(3,4-dimethoxyphenyl)propan-1-one] | 2.59 |  |
| COc1cc(N2CCCCC2)ccc1C(=O)C(C)c1ccccc1F (stereo not shown) [Example 15, 2-(2-fluorophenyl)-1-(2-methoxy-4-(piperidin-1-yl)phenyl)propan-1-one] | 6.52 |  |
| CC(C(=O)c1ccc(NCc2ccccc2)cc1)c1ccccc1F (stereo not shown) [Example 14, 1-(4-(benzylamino)phenyl)-2-(2-fluorophenyl)propan-1-one] | 7.35 |  |
| CC(C(=O)c1ccc(N2CCCCC2)cc1)c1ccccc1F (stereo not shown) [Example 13, 2-(2-fluorophenyl)-1-(4-(piperidin-1-yl)phenyl)propan-1-one] | 2.06 |  |
| COc1cc(NCc2ccc(C#N)cc2)ccc1C(=O)C(C)c1ccccc1F (stereo not shown) [Example 16, 4-(((4-(2-(2-fluorophenyl)propanoyl)-3-methoxyphenyl)amino)methyl)benzonitrile] | 5.28 |  |
| COc1ccc(C(C)C(=O)c2ccc(N3CCOCC3)cc2)cc1OC (stereo not shown) [Example 12, 2-(3,4-dimethoxyphenyl)-1-(4-morpholinophenyl)propan-1-one] | 6.85 |  |
| COc1ccc(C(C)C(=O)c2ccc(NCc3ccc(C#N)cc3)cc2OC)cc1OC (stereo not shown) [Example 10] | 0.6 | inhibitory activity against HIF-1α (in words) ([1]; comment on Table 2): best inhibitory activity against HIF-1a; inhibitory activity against angiogenesis (angiogenesis): better inhibitory activity against angiogenesis than that of the compound of Comparative Example 1; HIF-1α regulatory activity [2]: better HIF-1α regulatory activity than that of the compound of Comparative Example 1; inhibitory activity against retinal neovascularization by hypoxia [3]: better inhibitory activity against retinal neovascularization by hypoxia than that of the compound of Comparative Example 1 |
| 2-(3,4-dimethoxyphenyl)-1-(4-(pyrrolidin-1-yl)phenyl)propan-1-one [Example 11] | 2.61 |  |
| CCOc1ccc(C(=O)C(C)c2ccc(OC)c(OC)c2)c(OC)c1 (stereo not shown) [Example 3, 2-(3,4-dimethoxyphenyl)-1-(4-ethoxy-2-methoxyphenyl)propan-1-one] | 11.7 |  |
| COc1ccc(C(C)C(=O)c2ccc(N3CCCC3)cc2OC)cc1OC (stereo not shown) [Example 6, 2-(3,4-dimethoxyphenyl)-1-(2-methoxy-4-(pyrrolidin-1-yl)phenyl)propan-1-one] | 2.82 |  |
| COc1ccc(C(C)C(=O)c2ccc(NCc3ccccc3)cc2OC)cc1OC (stereo not shown) [Example 9, 1-(4-(benzylamino)-2-methoxyphenyl)-2-(3,4-dimethoxyphenyl)propan-1-one] | 1.43 |  |
| COc1ccc(C(C)C(=O)c2ccc(N3CCCCC3)cc2OC)cc1OC (stereo not shown) [Example 7, 2-(3,4-dimethoxyphenyl)-1-(2-methoxy-4-(piperidin-1-yl)phenyl)propan-1-one] | 1.85 |  |
